Experimental data published in patent US12146167B2 (priority 2021, dated 2024).

How the values were obtained:
Settings in all cases: pH 7.5
[1] = tested on: Cv_MetZ (O-succinylhomoserine sulfhydrylase metZ, SEQ ID NO: 10); type: biochemical, Chromobacterium violaceum ATCC 12472
[2] = tested on: Cg_MetY_P2T (O-acetylhomoserine sulfhydrylase variant metY_P2T, SEQ ID NO: 6); type: biochemical, Corynebacterium glutamicum ATCC 13032
[3] = tested on: Hn_MetZ (O-succinylhomoserine sulfhydrylase metZ, SEQ ID NO: 14); type: biochemical, Hyphomonas neptunium ATCC 15444
[4] = tested on: Cg_MetY (O-acetylhomoserine sulfhydrylase metY, SEQ ID NO: 2); type: biochemical, Corynebacterium glutamicum ATCC 13032

Measured: Product

CS [MM, methyl mercaptane]
yes: all assays above
